Series [1] in a line: Caco-2 permeability assay. It is filed as in vitro ADME. The following applies: human. The procedure:
Caco-2 cells were cultured in 75 cm^2 flasks to 80-90% confluence according to the ATCC and Millipore recommendations (Arena A. et al., 2003) in humidified atmosphere at 37° C. and 5% CO2. Cells were detached with Trypsin/EDTA solution and resuspended in the cell culture medium to a final concentration of 2×10^5 cells/ml. 500 μl of the cell suspension was added to each well of HTS 24-Multiwell Insert System and 1000 μl of prewarmed complete medium was added to each well of the feeder-plate. Caco-2 cells were incubated in Multiwell Insert System for 21 days before the transport experiments. The medium in filter plate and feeder tray was refreshed every other day. After 21 days of the cell growth, the integrity of the monolayer was verified by measuring the transepithelial electrical resistance (TEER) for every well using the Millicell-ERS system ohm meter. The final TEER values were within the range 150-600 Ω×cm^2 (Srinivasan B. et al., 2015) as required for the assay conditions. 24-well insert plate was removed from its feeder plate and placed in a new sterile 24-well transport analysis plate. The inserts were washed with PBS after medium aspiration. To determine the rate of compounds transport in apical (A)-to-basolateral (B) direction, 300 μL of the test compound dissolved in transport buffer at 10 μM (HBSS, 25 mM HEPES, pH=7.4) was added into the filter wells; 1000 μL of buffer (HBSS, 25 mM HEPES, pH=7.4) was added to transport analysis plate wells. Propranolol, Atenolol, Quinidine and Digoxin were used as reference compounds. The plates were incubated for 90 min at 37° C. under continuous shaking at 50 rpm. 75 μL aliquots were taken from the donor and receiver compartments for LC-MS/MS analysis. All samples were mixed with 2 volumes of acetonitrile followed by protein sedimentation by centrifuging at 10000 rpm for 10 minutes. Supernatants were analyzed using the HPLC system coupled with tandem mass spectrometer. The apparent permeability (Papp) was calculated for Caco-2 permeability assay using the following equation:
• VA=volume of transport buffer in acceptor well • Area=surface area of the insert (equals to effective growth area of the insert −0.31 sq.cm) • Time=time of the assay • [drug]acc=concentration of test compound in acceptor well • [drug]initial,d=initial concentration of test compound in a donor well • Papp is expressed in 10^−6 cm/sec.
The % recovery can be useful in interpreting the Caco-2 data. If the recovery is very low, this may indicate poor solubility, binding of the compound to the test plate materials, metabolism by the Caco-2 cells, or accumulation of the compound in the cell monolayer. The % recovery was calculated using the following equation:
• Vacc=volume of compound solution in acceptor well […] • Vd=volume of compound solution in […] • Cacc=concentration of test compound in acceptor well (μM) • Cinitial,d=initial concentration of test compound in a donor well (μM)
(Caco-2 monolayers are a common model of the intestinal barrier.)

Another series concerns the target human AT1R (Homo sapiens (Human), UniProt P30556). The experiment in a line: Counterscreen radioligand binding assay, displacement of 125I-[Sar1, Ile8]-Angiotensin II, hAT1R WT. The following applies: for inhibition at 1 µM / inhibition at 10 µM: 125I-[Sar1, Ile8]-Ang II, semi-quantitative score; for inhibition at 1 µM: compound at 1 μM, read-out: % Displaced radioligand at 1 μM; for inhibition at 10 µM: compound at 10 μM, read-out: % Displaced radioligand at 10 μM. The essentials: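 Compounds displaced 0.05 nM 125I-[Sar1, Ile8]-Ang II from human AT1R in HEK-293 membranes (1 h, 25° C; Tris/MgCl2/EDTA/BSA buffer, pH 7.4). Readout was filtration and scintillation counting, with non-specific binding set by 10 μM [Sar1]-Ang II. Values are % displacement at 1 μM and […], or IC50 from eight-point four-parameter fits.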
(In general: Counterscreens check selectivity or assay interference.)

The next series concerns the target human AT2R fused to Cb23 (Homo sapiens, UniProt P50052). The experiment in a line: Radioligand binding assay, displacement of 125I-[Sar1, Ile8]-Angiotensin II, hAT2R Cb23. The note with it: displacement of 125I-[Sar1, Ile8]-Angiotensin II, human AT2R fused to Cb23, HEK-293 cell membrane preparations; read-out: Binding affinity on hAT2R_Cb23 IC50. The method in brief: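 Membranes from HEK-293 cells expressing human AT2R fused to Cb23 were incubated with 0.05 nM 125I-[Sar1, Ile8]-Angiotensin II in 100 μL buffer (50 mM Tris, 5 mM MgCl2, 1 mM EDTA, 0.1% BSA, pH 7.4) for one hour at 25° C. Ligands were tested as eight-point dose-response curves in duplicate, with C21 and Angiotensin II as references.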
On the technique in general: Loss of bound radioactivity is the signal in a displacement assay; it reports binding, not function.

Series [2] can be described thus: Caco-2 permeability assay. It is filed as in vitro ADME. The note with it: human, pH 7.4; Caco-2, BA.
Series [3] in a line: Liver microsomal stability, rat. It is filed as in vitro ADME. The following applies: male, pH 7.4, liver microsomes. The procedure: Mouse hepatic microsomes were isolated from pooled (50), perfused livers of male Balb/c mice. Rat hepatic microsomes were isolated from pooled (15), perfused livers of male Wistar rats. Isolation was performed according to the standard protocol (Hill, J. R. in Current Protocols in Pharmacology 7.8.1-7.8.11, Wiley Interscience, 2003). The batches of microsomes were tested for quality control using Imipramine, Propranolol and Verapamil as reference compounds.
(§1) Microsomal incubations were carried out in 96-well plates in 5 aliquots of 40 μL each (one for each time point). Liver microsomal incubation medium contained PBS (100 mM, pH 7.4), MgCl2 (3.3 mM), NADPH (3 mM), glucose-6-phosphate (5.3 mM), glucose-6-phosphate dehydrogenase (0.67 units/ml) with 0.42 mg of liver microsomal protein per ml. Control incubations were performed replacing the NADPH-cofactor system with PBS. Test compound (2 μM, final solvent concentration 1.6%) was incubated with microsomes at 37° C., shaking at 100 rpm. Incubations were performed in duplicates. Five time points over 40 minutes have been analyzed. The reactions were stopped by adding 12 volumes of 90% acetonitrile-water to incubation aliquots, followed by protein sedimentation by centrifuging at 5500 rpm for 3 minutes. […]. Supernatants were analyzed using the HPLC system coupled with tandem mass spectrometer (API3000 PE Sciex). Acquisition and analysis of the data were performed using Analyst 1.5.2 software (PE Sciex). The elimination constant (kel), half-life (t½) and intrinsic clearance (Clint) were determined in plot of […] versus time, using linear regression analysis:
(§2) Mouse hepatic microsomes were isolated from pooled, perfused livers of male CD1 mice. Rat hepatic microsomes were isolated from pooled, perfused livers of male Sprague Dawley rats. Dog hepatic microsomes were isolated from pooled, perfused livers of male Beagle dogs. The batches of microsomes were tested for quality control using Testosterone, Propranolol and Caffeine as reference compounds.
(§3) A 10 mM stock solution of compound in DMSO is diluted three-fold in DMSO. This pre-diluted compound solution is then further diluted to 2 μM in a 50 mM phosphate buffer (PBS, pH 7.4) and pre-warmed at 37° C. This compound dilution is mixed F2 with microsomal/cofactor mix at 37° C. under shaking at 300 rpm. Final reaction conditions are: 100 μL incubation volume, 1 μM of test compound (in duplicate), <0.1% DMSO, 0.5 mg/mL microsomes, 0.6 U/mL Glucose-6-phosphate-dehydrogenase (G6PDH, Roche, 10127671001), 3.3 mM MgCl2 (Sigma, M2670), 3.3 mM glucose-6-phosphate (Sigma, G-7879) and 1.3 mM NADP+ (Sigma, N-0505).
(§4) After 60 min of incubation at 300 rpm and 37° C., the reaction was stopped with 3 volumes of STOP solution (acetonitrile/MeOH 2/1 with diclofenac as internal standard). For the time point zero, 3 volumes of STOP solution were added to the compound dilution before the microsome mix was added. Six time points over 60 minutes have been analyzed. The samples of all time points were centrifuged, filtered and the supernatant analyzed by LCMS/MS (systems API4000).
(§5) The instrument responses (peak areas/IS peak area) were referenced to the zero time-point samples (considered as 100%) in order to determine the percentage of compound remaining.
(§6) Testosterone (1 μM) and Propranolol and Caffeine (1 μM) were used as reference compounds, being unstable and stable compounds respectively. If the microsomal stability values for these controls are not in the range determined by the historical data, the assay is not validated. The solubility of the compound in the final test concentration in 50 mM buffer pH 7.4 is checked by microscope to indicate whether precipitation is observed or not. If a precipitate is observed, no data of microsomal stability is generated.

Series [4] in a line: Liver microsomal stability, human. The class given is in vitro ADME. The following applies: pH 7.4, liver microsomes. The procedure: as §1, §3, §4, §5, §6
A short description of series [5]: Metabolic stability in hepatocytes, rat. The following applies: hepatocytes (cryopreserved), read-out: Rat Clint (μL/min/10^6 cells). The class given is in vitro ADME. As for the experimental part: The aim of this assay is to determine the metabolic stability of the compound in hepatocytes (cryopreserved) of different species (mouse CD1, rat Sprague Dawley, dog Beagle). Low hepatocyte stability may result in the formation of unwanted metabolites, high clearance, and therefore is not desirable. The decrease in parent was assessed by measuring the percentage remaining by LC-MS/MS analysis. The batches of hepatocytes were tested for quality control using Testosterone, Umbelliferone and Caffeine as reference compounds.
A 10 mM stock solution of test compound in DMSO was first diluted in DMSO to 3 mM, and then in modified Krebs-Henseleit buffer (Sigma, K3753) to 5 μM. This compound dilution was added to a suspension of pooled cryopreserved hepatocytes (BioIVT) at 37° C. under gentle shaking. Final reaction conditions were: 1 μM of test compound, <0.1% DMSO, 0.5 million viable hepatocytes/mL, and 75 μL incubation volume.
After 0, 10, 20, 45, 90, 120 and 180 min of incubation, the reaction was terminated with 3 volumes of MeCN:MeOH (2:1) containing diclofenac as analytical internal standard. Samples were mixed, centrifuged and the supernatant analyzed by LC-MS/MS (systems API4000). The instrument responses (ratios of test compound and internal standard peak areas) were referenced to the zero time point samples (considered as 100%) in order to determine the percentage of compound remaining. Plots of percentage compound remaining were used to determine the intrinsic clearance in the hepatocyte incubations.
Testosterone (1 μM) and Umbelliferone (1 μM) and Caffeine (1 μM) were used as reference compounds, being unstable and stable compounds respectively. If the hepatocyte stability values for these controls are not in the range determined by the historical data, the assay is not validated.

Series [6] is described as follows: Liver microsomal stability, dog. It is filed as in vitro ADME. The note with it: male, Beagle, pH 7.4, liver microsomes. As for the experimental part:
as §2, §3, §4, §5, §6

Results on five molecules are retold here after patent US20240368133A1, “Compounds for the Treatment of Pain, in Particular, Neuropathic Pain, and/or Other Diseases or Disorders that are Associated with AT2R and/or AT2R Mediated Signaling” (Confo Therapeutics N.V., priority 2021, published 2024).

SMILES strings stand for the structures. Some results are limits rather than exact numbers.

Usually efflux ratio stands for the permeability from basolateral to apical divided by that in the opposite direction, in the common usage. As usually defined, the Papp A→B is how fast a substance crosses the layer from the apical side. By IC50 is commonly meant the concentration needed to halve the response being measured. The term Papp B→A denotes the apparent permeability from the basolateral to the apical side of a cell layer. A word on the microsomal CLint: it is the capacity of the preparation to metabolise the compound, expressed as a volume cleared per time.

Sequence of human AT2R fused to Cb23 (P50052 whole entry, looked up, the tested form may be a part): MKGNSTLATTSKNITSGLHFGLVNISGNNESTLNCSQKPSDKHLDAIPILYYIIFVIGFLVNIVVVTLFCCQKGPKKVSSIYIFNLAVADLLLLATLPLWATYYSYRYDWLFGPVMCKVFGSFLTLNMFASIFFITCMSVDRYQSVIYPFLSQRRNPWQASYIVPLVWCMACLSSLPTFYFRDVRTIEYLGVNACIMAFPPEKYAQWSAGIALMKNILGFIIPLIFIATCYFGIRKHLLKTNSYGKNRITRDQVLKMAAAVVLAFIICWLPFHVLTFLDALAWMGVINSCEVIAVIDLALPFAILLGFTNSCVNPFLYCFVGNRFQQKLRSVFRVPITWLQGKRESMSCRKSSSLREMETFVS
Sequence of human AT1R (P30556 whole entry): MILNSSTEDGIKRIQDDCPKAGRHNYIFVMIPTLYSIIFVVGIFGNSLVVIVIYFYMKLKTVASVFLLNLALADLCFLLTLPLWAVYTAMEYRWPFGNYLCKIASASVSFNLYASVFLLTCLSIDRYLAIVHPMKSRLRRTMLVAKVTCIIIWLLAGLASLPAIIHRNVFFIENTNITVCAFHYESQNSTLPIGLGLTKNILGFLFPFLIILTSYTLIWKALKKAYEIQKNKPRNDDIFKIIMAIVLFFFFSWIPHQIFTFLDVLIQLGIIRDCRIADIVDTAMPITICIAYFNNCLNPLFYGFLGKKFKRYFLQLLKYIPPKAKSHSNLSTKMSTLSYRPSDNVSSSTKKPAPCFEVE

Regarding `CCc1cc(CC(C)C)cc(N2CCN(Cc3cccnn3)CC2)c1-c1nn[nH]n1` [Compound A-168], in series [1] (Caco-2, pH 7.4), the efflux ratio at 90 min, 10 µM came to 11.3 and the recovery at 90 min, 10 µM was determined as 97%. Further, the Papp A→B at 90 min, 10 µM in series [1] (pH 7.4, Caco-2, AB) came out at 1.3 ×10⁻⁶ cm/s. In addition, at human AT1R, the inhibition at 1 µM was under 30% and the inhibition at 10 µM was under 30%. Further, the half-inhibitory concentration (IC50) on human AT2R fused to Cb23 amounted to 17.7 nM. In series [2], the basolateral-to-apical permeability (Papp B→A) at 90 min, 10 µM stood at 14.7 ×10⁻⁶ cm/s.
In the case of `CC(C)Cc1cc(F)c(-c2nn[nH]n2)c(N2CC(C)N(Cc3cccnn3)C(C)C2)c1` (centres unmarked) [Compound A-184, 3-[[4-[3-fluoro-5-isobutyl-2-(2H-tetrazol-5-yl)phen-yl]-2,6-dimethyl-piperazin-1-yl]-methyl]pyridazine], the inhibition at 1 µM on human AT1R is under 30%. Besides, the inhibition at 10 µM on human AT1R is under 30%. The IC50 at human AT1R (HEK-293 cell membranes, read-out: Binding affinity On hAT1R IC50) was found to be 33600 nM; at human AT2R fused to Cb23 it was 0.893 nM. Also, the microsomal CLint in series [3] is 19 µL/min/mg; in series [4] it was 18 µL/min/mg. The hepatocyte CLint in series [5] turned out to be 2 µL/min/1e6 cells.
`COc1ccnc(CN2CCN(c3cc(CC(C)C)cc(F)c3-c3nn[nH]n3)C[C@@H]2C)c1` [Compound A-227, (2S)-4-[3-fluoro-5-isobutyl-2-(2H-tetrazol-5-yl)phenyl]-1-[(4-methoxy-2-pyridyl)methyl]-2-methyl-piperazine]: at human AT1R, the inhibition at 1 µM was under 30% and the inhibition at 10 µM is under 30%. Also, the IC50 at human AT2R fused to Cb23 stood at 8.75 nM. The microsomal CLint in series [3] is 22.3 µL/min/mg. The molecule also had a microsomal CLint in series [4] of 16.5 µL/min/mg. In series [6], the microsomal CLint at 1 µM is under 11.7 µL/min/mg.
Regarding `Cc1cccnc1CN1CCN(c2cc(CC(C)C)cc(F)c2-c2nn[nH]n2)C[C@@H]1C` [Compound A-228, (2S)-4-[3-fluoro-5-isobutyl-2-(2H-tetrazol-5-yl)phenyl]-2-methyl-1-[(3-methyl-2-pyridyl)methyl]piperazine], on human AT1R, the inhibition at 1 µM is under 30% and the inhibition at 10 µM is under 30%. For the same molecule, the IC50 at human AT2R fused to Cb23 was 14.9 nM. Besides, the microsomal CLint in series [3] is 28.3 µL/min/mg. Also, in series [4], the microsomal CLint worked out at 97.6 µL/min/mg. Also, the microsomal CLint at 1 µM in series [6] was under 11.7 µL/min/mg.
With `Cc1ccnc(CN2CCN(c3cc(CC(C)C)cc(F)c3-c3nn[nH]n3)C[C@@H]2C)c1` [Compound A-229, (2S)-4-[3-fluoro-5-isobutyl-2-(2H-tetrazol-5-yl)phenyl]-2-methyl-1-[(4-methyl-2-pyridyl)methyl]piperazine], at human AT1R, the inhibition at 1 µM was under 30% and the inhibition at 10 µM was under 30%. In addition, the IC50 on human AT2R fused to Cb23 was 7.98 nM. For the same molecule, in series [3], the microsomal CLint stood at 24.8 µL/min/mg. This molecule also had a microsomal CLint in series [4] of 21.6 µL/min/mg. Besides, the microsomal CLint at 1 µM in series [6] was under 11.7 µL/min/mg.
